Literature values, collected in patent publication US11419872B2, “Phosphoinositide 3-kinase and Src inhibitors for treatment of pancreatic cancer” (Innoplexus AG, priority 2020, dated 2022).

Tests used:
[1] = test system: pancreatic cancer cell line PANC-1; conditions: PANC-1 (Suzuki et al. 2016)
[2] = test system: human embryonic kidney cell line HEK293
[3] = test system: breast cancer cell line MDA-MB-231
[4] = test system: gastric cancer cell line MKN-1
[5] = in vivo
[6] = test system: colon carcinoma cell line CT26
[7] = for adverse events reported: literature reports
CYP3A4 = CYP3A4 (Homo sapiens, UniProt P08684)
Sequence of CYP3A4 (P08684 whole entry): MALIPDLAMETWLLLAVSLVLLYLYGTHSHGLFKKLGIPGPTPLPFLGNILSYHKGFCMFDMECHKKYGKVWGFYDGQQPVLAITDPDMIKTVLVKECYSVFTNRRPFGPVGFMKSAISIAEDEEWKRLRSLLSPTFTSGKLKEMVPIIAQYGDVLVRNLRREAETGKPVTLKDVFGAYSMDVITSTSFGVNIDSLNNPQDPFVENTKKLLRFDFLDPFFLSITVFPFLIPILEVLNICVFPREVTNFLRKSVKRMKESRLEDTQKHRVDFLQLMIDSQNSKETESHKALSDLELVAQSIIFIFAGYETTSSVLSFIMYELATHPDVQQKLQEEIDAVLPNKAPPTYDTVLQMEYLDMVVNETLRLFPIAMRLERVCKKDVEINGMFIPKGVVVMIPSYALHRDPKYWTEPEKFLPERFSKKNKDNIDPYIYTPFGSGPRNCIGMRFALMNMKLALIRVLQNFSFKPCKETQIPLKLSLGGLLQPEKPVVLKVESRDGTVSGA

[8] = test system: primary tumours and metastasis; conditions: pre-clinical animal models

## O=C1CCc2ccc(OCCCCN3CCN(c4cccc(Cl)c4Cl)CC3)cc2N1 [aripiprazole, 7-[4-[4-(2,3-dichlorophenyl)piperazin-1-yl]butoxy]-3,4-dihydro-1Hquinolin-2-one]
other
  Log P: 4.55
Glioma cell line LN428
  cell viability: reduced the viability
[1]
  cell death and number of viable cells: induced cell death and accordingly decreased the number of viable cells
[2]
  cell viability: reduced the viability
[3]
  cell viability: reduced the viability
[4]
  cell viability: reduced the viability
[5]
  elimination half-life: approximately 75 hours
Glioma cell line U251
  cell viability: reduced the viability
[6]
  cell viability: reduced the viability

## COc1c(OCCCN2CCOCC2)ccc2c1N=C(NC(=O)c1cnc(N)nc1)N1CCN=C21 [copanlisib, amino-N-[7-methoxy-8-(3-morpholin-4-ylpropoxy)-2,3-dihydro-1 H-imidazo [1,2-c]quinazolin-5-ylidene] pyrimidine-5-carboxamide]
[7]
  adverse events reported: cardiac disorders, glucose metabolism disorders or neurological disorders

## CC[C@H](Nc1ncnc2[nH]cnc12)c1nc2cccc(F)c2c(=O)n1-c1ccccc1 [Idealisib, 5-fluoro-3-phenyl-2-[(1S)-1-(7H-purin-6-ylamino)propyl] quinazolin-4-one]
[7]
  adverse events reported: pneumonitis, hematological disorder, diarrhea and colitis

## C[C@H](Nc1ncnc2[nH]cnc12)c1cc2cccc(Cl)c2c(=O)n1-c1ccccc1 [duvelisib, 8-Chloro-2-phenyl-3-[(1S)-1-(3H-purin-6-ylamino)ethyl]-1(2H)-isoquinolinone]
[7]
  adverse events reported: diarrhea or colitis, cutaneous reactions, infections and pneumonitis
[7]; patients with advanced hematologic malignancies
  safety profile: manageable safety profile
CYP3A4
  primary metabolising enzyme: primarily metabolized by CYP3A4

## Cc1c(O)c(=O)ccn1C [deferiprone]
[7]
  adverse events reported: joint pain, stiffness or swelling

## O=C(Cc1ccc(-c2ccc(OCCN3CCOCC3)cc2)cn1)NCc1ccccc1 [KX2-391, N-benzyl-2-[5-[4-(2-morpholin-4-ylethoxy)phenyl]pyridin-2-yl] acetamide]
[8]
  growth of primary tumours and metastasis: inhibits the growth of both primary tumours and metastasis

## COc1cc(Nc2ncc(F)c(Nc3ccc4c(n3)N(COP(=O)(O)O)C(=O)C(C)(C)O4)n2)cc(OC)c1OC [fostamatinib]
[7]
  adverse events reported: white blood cell disorder, hematological and hepatobiliary disorders
